{"source": "patent US20250228825A1", "about": "“COMPOSITIONS OF RAPAMYCIN AND THEIR USE IN THE TREATMENT OF M[…] MALFORMATION” (priority 2021, published 2025)", "origin": "cited, not measured here", "system": "LM lesions", "settings": "patients with LM", "data": [{"smiles": "CO[C@H]1C[C@@H]2CC[C@@H](C)[C@@](O)(O2)C(=O)C(=O)N2CCCC[C@H]2C(=O)O[C@H]([C@H](C)C[C@@H]2CC[C@@H](O)[C@H](OC)C2)CC(=O)[C@H](C)/C=C(\\C)[C@@H](O)[C@@H](OC)C(=O)[C@H](C)C[C@H](C)/C=C/C=C/C=C/1C", "note": "[sirolimus, rapamycin]", "values": [{"measurement": "effectiveness", "setting": "reported in another review", "value": 84.5, "unit": "%"}, {"measurement": "pooled clinical effectiveness (partial or complete response)", "setting": "reported in one review", "value": 94.9, "unit": "%"}]}]}
